According to patent US8759326B2, “Drug combinations containing PDE4 inhibitors and NSAIDs” (Boehringer Ingelheim International GmbH, priority 2009, dated 2014):

Columns and labels:
male Wistar rats [1] = test: Experiment 4: diarrhoea and mesentery histopathology in rats, roflumilast with or without SC-560 or lumiracoxib; format: in vivo, rat; details: p.o. four days, roflumilast 10 mg/kg at 1300, SC-560 or lumiracoxib 2 mg/kg at 0800 and 1700, 95 hours after t0; for Mesentery: Proliferation of fibroblasts / Mesentery: multifocal perivascular mononuclear infiltration (=inflammation parameter): animals affected out of animals examined; for Diarrhoea: animals affected out of animals
Protocol: (§1) For pharmacokinetic analysis (determining the plasma levels of the substances) on day 4 one rat from each group was used; these rats were no longer available for other parameters under investigation.
(§2) At the end of the experiment (95 hours after t0 (=the time of the first administration on day 1, 0800 hours)) the rats from the individual groups were examined phenotypically and histopathologically for the presence of multifocal perivascular mononuclear infiltration (=inflammation parameter) in the mesentery and for the proliferation of fibroblasts in the mesentery. In addition, the occurrence of diarrhoea in the rats from the different groups was noted.

male Wistar rats [2] = test: Experiment 3: weight loss, leukocytosis and neutrophilia in rats, roflumilast with or without SC-560 or lumiracoxib; format: in vivo, rat
male Wistar rats [3] = test: Experiment 2: diarrhoea and mesentery histopathology in rats, roflumilast with or without diclofenac; details: roflumilast 10 mg/kg p.o. daily; six rats per group; between day 4 and day 5
Protocol: as §1, §2

male Wistar rats [4] = test: Experiment 1: weight loss, leukocytosis and neutrophilia in rats, roflumilast with or without diclofenac
Protocol: For pharmacokinetic analysis (determining the plasma levels of the substances) on day 4 one rate from each group was used; these rats were no longer available for other parameters under investigation.
The average±standard deviation of the body weights at time t0 was 355±17 g.
At the end of the experiment (95 hours after t0 (=the time of the first administration on day 1, 0800)) the proportion of white blood cells (×1000 cells/μl blood, FIG. 1B, left-hand Figure) and the proportion of neutrophils (in % of white blood cells, FIG. 1B, right-hand Figure) were determined from the blood of 4 or 5 of the rats from the individual groups.

| parameters measured after the administration of the NSAID alone, compared with control (male Wistar rats [2]; 2 mg/kg p.o. at 0800 and 1700, four days) | Structure (SMILES) | Mesentery: Proliferation of fibroblasts (male Wistar rats [1]) | Mesentery: multifocal perivascular mononuclear infiltration (=inflammation parameter) (male Wistar rats [1]) | Diarrhoea (male Wistar rats [1]) | PDE4 inhibitor-mediated side effects such as weight loss, leukocytosis, neutrophilia and diarrhoea (male Wistar rats [2]; FIG. 2A, 2B, p.o. four days, roflumilast 10 mg/kg, lumiracoxib 2 mg/kg twice daily) | death of rats (male Wistar rats [3]) | death of rats (male Wistar rats [4]; roflumilast 10 mg/kg p.o. daily, six rats per group, between day 4 and day 5) | parameters measured after the administration of the NSAID alone, compared with control (male Wistar rats [4]; diclofenac 1 mg/kg p.o. at 0800 and 1700, four days) | protective effect on roflumilast-mediated weight loss, leukocytosis and neutrophilia (male Wistar rats [2]; SC-560 2 mg/kg p.o. at 0800 and 1700 co-administered with roflumilast 10 mg/kg, four days) |
| --- | --- | --- | --- | --- | --- | --- | --- | --- | --- |
|  | O=C(Nc1c(Cl)cncc1Cl)c1ccc(OC(F)F)c(OCC2CC2)c1 [roflumilast] | 5/5 | 5/5 | 2/6 | observed | one rat | one rat |  |  |
|  | O=C(O)Cc1ccccc1Nc1c(Cl)cccc1Cl [diclofenac] |  |  |  |  |  |  | very similar to the control groups |  |
| very similar to the control groups | Cc1ccc(Nc2c(F)cccc2Cl)c(CC(=O)O)c1 [lumiracoxib] | 0/5 | 0/5 | 0/6 |  |  |  |  |  |
|  | COc1ccc(-n2nc(C(F)(F)F)cc2-c2ccc(Cl)cc2)cc1 [SC-560] |  |  | 0/6 |  |  |  |  | absolutely no protective effect |
